Experimental data as given in patent US20150087722A1, “TREATMENT FOR BREAST TUMOR CELL METASTASIS” (China Medical University, priority 2012, published 2015).
Where two headings read alike, the source gives them in different places.

Columns and labels:
[1] = tested on: breast tumor cells MDA-MB-231; experiment: MTT cell viability assay; assay type: cell-based, human; details: for IC50: Homo sapiens; for cell viability: FIG. 13
Method: The breast tumor cells (MDA-MB-231, MDA-MB-435, MDA-MB-453, MDA-MB-468 and MCF-7) were commercially obtained from the bioresource collection and research center (BCRC), and were cultured in a 10% FBS-DMEM culture medium (i.e., a DMEM culture medium including 10% fetal bovine serum (FBS)). The human breast cell MCF-10A was cultured in a 5% FBS-DMEM culture medium (including F12, insulin, hydrocortisol and epidermal growth factor). An environment of 5% CO2 was kept in the incubator at a constant temperature of 37° C. When a certain number of cells were generated in culture, the culture medium was removed after being centrifuged for 10 min at a rate of 900 rpm. The culture medium was replaced in 24 h before the experiment, and the number of cells was counted by a hemocytometer.
The cell viability was determined by a method of […] (MTT assay). The test method for assaying cell viability refers to steps provided by Parada-Turska et al.
The breast tumor cells MDA-MB-231 were inoculated in a 24-well plate (2.5×10^5 cells/well), and the next day after cells were adhered to the wall of the plate, the cells were washed with PBS. 1% FBS-DMEM culture medium was then added so as to synchronize cells. The next day compound II having different concentrations were added into the wells, and the cells were subsequently cultured in an atmosphere of 5% CO2 at 37° C. for 24 h. The cells were washed with PBS once, and 400 μl MTT agent was added in each well so as to react for 4 h. Then 400 μl 10% SDS was added in each well so as to react for 12 h. 200 μl supernatant was taken from the well and then added into a 96-well microplate, so as to measure the absorbance at 570 nm.
FIG. 13 separately illustrates the viabilities of cells treated with the compound II in different doses, and whether the viabilities of cells were recovered when the cells were treated with both the compound II and the antioxidant NAC, so as to illustrate the effect of increased reactive oxygen species caused by the compound II on the tumor cell proliferation. The test method for measuring the cell viability refers to steps described in test example 2-1. The breast tumor cells MDA-MD-231 were treated with the compound II of 0, 2, 5, 7.5, 10 and 15 μM for 24 h, and then the effect of the compound II on viability of breast tumor cells MDA-MD-231 was observed. FIG. 13 is a quantitative diagram, the data result was represented by mean±SD values, where n=3.

[2] = tested on: Ovarian Tumor Cell (SKOV3 cell strain); experiment: MTT cell viability assay; assay type: cell-based; details: Homo sapiens, SK-OV-3
[3] = tested on: EMT-related proteins in breast tumor cells MDA-MB-231; experiment: western blotting of EMT-related proteins; assay type: cell-based, human; details: MDA-MB-231, 0.5, 1 and 2 μM, 24 h, with dose increasing
Method: FIG. 2A illustrates the expression results of EMT-related proteins in breast tumor cells MDA-MB-231 after the breast tumor cells MDA-MB-231 have been respectively cultured under compound II having concentrations of 0, 0.5, 1 and 2 μM for 24 h; and FIG. 2B illustrates the expression results of EMT-related proteins in breast tumor cells MCF-7 after the breast tumor cells MCF-7 have been respectively cultured under the compound II having concentrations of 0, 10, 15 and 20 μM for 24 h. FIG. 3A illustrates the western blotting results of EMT-related proteins in the breast tumor cells MDA-MB-468, where the breast tumor cells MDA-MB-468 are treated with the compound I having concentrations of 0, 0.5, 1 and 2 μM for 24 h, and FIG. 3B illustrates the western blotting results of EMT-related proteins in the breast tumor cells MDA-MB-435, where the breast tumor cells MDA-MB-435 are treated with the compound I having concentrations of 0, 2.5, 5 and 7.5 μM for 24 h. […] Then luminescence image equipment was used, where the PVDF was placed onto a black metal plate by a plastic pincer and the face including protein was upwards, a 1:1 mixed Chemiluminesent Substrate was added into the membrane and the exposure time depends on the fluorescence intensity of antibodies. […]

COC1=C(OC)C(=O)C(C)=C(C)C1=O [compound II]
IC50 ([1]; MDA-MB-231, 0-40 μM for 24 h, FIG. 1A, read-out: IC50 for inhibiting the MDA-MB-231): ~6.5 µM | IC50 ([1]; viability, MDA-MB-231 cell strain, Table 1, read-out: IC50): 7.51 µM | cell viability ([1]; MDA-MB-231, 2-15 μM, 24 h): significantly decreased | cell viability ([1]; MDA-MB-231, with antioxidant NAC): not influenced | IC50 [2]: 15.3 µM | expression amount of E-cadherin, occludin and ICAM [3]: increased | expression amount of proteins facilitating tumor cell proliferation (Twist, Snail, vimentin, β-catenin, VEGF) [3]: decreased
